Paper PMC6985109, “Cellular apoptosis and necrosis as therapeutic targets for novel Eugenol Tosylate Congeners against Candida albicans” (Scientific Reports, 2020)
≈ marks a conversion by molar mass, not a printed value. Where two headings read alike, the source gives them in different places.

Experiments:
[1] = tested on: C. albicans 4175, C. albicans 5112 and C. albicans SC5314; experiment: FITC annexin V/PI staining flow cytometry, ranges over three strains; assay type: cell-based, Candida albicans; conditions: 250 μmol/L, positive control
Experimental: (§1) To study the effect of test compounds on apoptotic markers protoplasts were prepared as described previously, with modifications. Briefly, mid-exponential phase cells were harvested and exposed to various concentrations of test compounds (0.5 × MIC, 1 × MIC and 2×MIC) for 3 h. The cells were then washed twice with protoplast buffer- I (1 M sorbitol, 50 mM tris base, 10 mM MgCl2 and 30 mM DTT) and incubated in the same buffer for 15 minutes at 25 °C, followed by centrifugation at 1500 rpm for 5 minutes. Supernatant was removed and cells were incubated with buffer- II (1 M sorbitol, 50 mM tris base, 10 mM MgCl2 and 1 mM DTT) supplemented with lyticase enzyme (≥1 µg/mL) used to digest the cell wall for 1 h at 25 °C. Buffer- II were removed by centrifugation and then cells were incubated with buffer- III (1 M sorbitol, 50 mM tris base and 10 mM MgCl2) for 20 minutes at room temperature. After the incubation cells were again centrifuged at 1500 rpm for 5 minutes and supernatant was discarded. Protoplasts then finally washed once with PBS and re-suspended in the same for further use. In each washing steps the volume of these protoplast buffers were 5 times to cell volume with pH 7.4.
This assay was used to identify early apoptosis by detecting movement of phosphatidylserine (PS) from the inner to the outer leaflet of plasma membrane. FITC annexin V Apoptosis Detection Kit I (BD Biosciences, CA, USA) was used according to the manufacturer’s instructions. Protoplasts of C. albicans cells treated with different concentrations of the test compounds, as mentioned in above section, were resuspended in 1X annexin V binding buffer ([…]) at a concentration of 1 × 10^6 cells per ml. To the 100 µl of this solution, 5 µl each of FITC annexin V and propidium iodide (PI) was added. Tubes were gently vortexed and incubated for 15 minutes at 25 °C in the dark. After incubation, 400 µl of 1X annexin V binding buffer was added to each tube and analyzed using the BD LSRFortessa Flow cytometer (Becton Dickinson, NJ, USA). The cell populations in four different quadrants of a quadrant dot plot were analyzed and interpreted as; Q1: necrosis (annexin V^−/PI^+), Q2: late apoptosis (annexin V^+/PI^+), Q3: early apoptosis (annexin V^+/PI^−) and Q4: viable cells (annexin V^−/PI^−), by using software FlowJo_V10.

[2] = tested on: C. albicans 4175, C. albicans 5112 and C. albicans SC5314; experiment: TUNEL assay for DNA damage; assay type: cell-based, Candida albicans; conditions: 250 μmol/L, positive control
Experimental: as §1, with “Protoplasts then finally washed once with PBS and re-suspended in the same for further use. In each washing steps the volume of these protoplast buffers were 5 times to cell volume with pH 7.4.” left out
TUNEL assay was used to detect the DNA damage, a hallmark for late stages of apoptosis. […] Slides were examined by fluorescence microscopy using Zeiss Laser Scanning Confocal Microscope (LSM) 780 (Carl Zeiss Microscopy, Jena, Germany) with an excitation wavelength of 495 nm and emission wavelength of 519 nm. […] Images were further analyzed by using software ImageJ.

[3] = tested on: Candida albicans 4106; experiment: Broth microdilution antifungal susceptibility (MIC/MFC); assay type: cell-based; conditions: strain 4106, FLC resistant; for MIC: 37 °C, 24 h
Experimental: (§2) In this study, 10 clinical Candida albicans isolates, comprising of 5 fluconazole susceptible and 5 fluconazole resistant, were used. C. albicans SC5314 was also used as a control laboratory strain. Clinical strains used in this study were stored at −80 °C supplemented with 20% glycerol in the Department of Clinical Microbiology and Infectious Diseases, University of the Witwatersrand, Johannesburg and were previously collected under the ethical clearance number M000402, obtained from the Human Research Ethics Committee, University of the Witwatersrand. For experimental purpose each strain from glycerol stock was recovered on Sabouraud Dextrose (SDA) agar plates at 37 °C for 24 h.
(§3) Minimum Inhibitory Concentration (MIC) and Minimum Fungicidal Concentrations (MFC) of all newly synthesized eugenol-tosylate congeners (ETC-1–ETC-7) against C. albicans strains were determined by broth microdilution assay in accordance with the approved guidelines described by Clinical and Laboratory Standards Institute (CLSI) guidelines M27-A[38]. The test compounds were prepared in 1% DMSO to a stock concentration of 8192 µg/ml. Two-fold dilutions of test compounds (100 µL) were prepared in 96-well flat-bottom microtiter plates, inoculated with 100 µl of inoculum (1 × 10^6 cells/mL) and incubated at 37 °C for 24 hours. In every set of experiment, positive control (fluconazole), negative vehicle control (1% DMSO) and culture control (media and cells only) were included. MIC’s were determined visibly as the lowest concentration of the test compounds that inhibited growth of test organism. To determine MFC, each well without visible growth was sub-cultured onto agar plates. Concentration in the first well with no growth on plate was taken as MFC. […] The experiment was performed in triplicate to validate the results.

[4] = tested on: Candida albicans 4122; experiment: as above; assay type: cell-based; conditions: strain 4122, FLC resistant; for MIC: 37 °C, 24 h
Experimental: as §2, §3

[5] = tested on: Candida albicans 4135; experiment: as above; assay type: cell-based; conditions: strain 4135, FLC resistant; for MIC: 37 °C, 24 h
Experimental: as §2, §3

[6] = tested on: Candida albicans 4175; experiment: as above; assay type: cell-based
Experimental: as §2, §3

[7] = tested on: Candida albicans 4179; experiment: as above; assay type: cell-based; conditions: strain 4179, FLC susceptible; for MIC: 37 °C, 24 h
Experimental: as §2, §3

[8] = tested on: Candida albicans 4180; experiment: as above; assay type: cell-based; conditions: strain 4180, FLC susceptible; for MIC: 37 °C, 24 h
Experimental: as §2, §3

[9] = tested on: Candida albicans 4324; experiment: as above; assay type: cell-based; conditions: strain 4324, FLC resistant; for MIC: 37 °C, 24 h
Experimental: as §2, §3

[10] = tested on: Candida albicans 4563; experiment: as above; assay type: cell-based; conditions: strain 4563, FLC susceptible; for MIC: 37 °C, 24 h
Experimental: as §2, §3

[11] = tested on: Candida albicans 4576; experiment: as above; assay type: cell-based; conditions: strain 4576, FLC susceptible; for MIC: 37 °C, 24 h
Experimental: as §2, §3

[12] = tested on: Candida albicans 5112; experiment: as above; assay type: cell-based; conditions: strain 5112, FLC resistant; for MIC: 37 °C, 24 h
Experimental: as §2, §3

[13] = tested on: Candida albicans SC5314; experiment: as above; assay type: cell-based; conditions: SC5314, FLC susceptible; for MIC: 37 °C, 24 h
Experimental: as §2, §3

[14] = tested on: fluconazole susceptible and resistant C. albicans strains; experiment: Broth microdilution antifungal susceptibility, ranges over strains; assay type: cell-based; conditions: Candida albicans
Experimental: as §2, §3

[15] = tested on: horse red blood cells; experiment: Cytotoxicity by haemolytic assay; assay type: cell-based
Experimental: The cytotoxicity of the test compounds was determined on horse red blood cells (NHLS, Johannesburg, South Africa) by testing the haemolytic activity of these compounds using the method described previously, with some modifications. Briefly, in a sterile 15 ml falcon tube 5 ml of horse blood was centrifuged at 2000 × rpm for 10 minutes. The supernatant was discarded, and the cell pellet was washed three times with chilled PBS solution. The final pellet was used to yield a 10% RBC suspension with chilled PBS. The 10% suspension were further diluted to 1:10 in PBS, then 100 µl of this suspension was added to different concentration of test compounds (0.5 × MIC, 1 × MIC and 2 × MIC) in 1.5 ml tubes. The tubes were then incubated for 60 minutes at 37 °C followed by centrifugation at 2000 × rpm for 10 minutes. From each tube, 200 µl of the supernatant was transferred to a flat-bottomed 96-well microtiter plate and absorbance was monitored at 450 nm spectrophotometrically with an iMark microplate reader (Bio-Rad laboratories, CA, USA). Triton X-100 (1%) and PBS were used as positive and negative controls respectively. The percentage of haemolysis was calculated by the following equation: %haemolysis=A450oftestcompoundtreatedsample−A450ofbuffertreatedsample/A450of1%TritonX−100treatedsample−A450ofbuffertreatedsample×100%

[16] = Candida albicans, strain 4175, FLC susceptible
[17] = Candida albicans, strain 4175, FLC susceptible, 37 °C, 24 h, read-out: MIC
[18] = over the tested C. albicans strains

Molecule	MFC [3] [mg/L]	MIC [3] [mg/L]	MFC [4] [mg/L]	MIC [4] [mg/L]	MFC [5] [mg/L]	MIC [5] [mg/L]	MFC [6, 16] [mg/L]	MIC [6, 17] [mg/L]	MFC [7] [mg/L]	MIC [7] [mg/L]	MFC [8] [mg/L]	MIC [8] [mg/L]	MFC [9] [mg/L]	MIC [9] [mg/L]	MFC [10] [mg/L]	MIC [10] [mg/L]	MFC [11] [mg/L]	MIC [11] [mg/L]	MIC [12] [mg/L]	MIC [13] [mg/L]	also measured
OO [H2O2, reference compound]	–	–	–	–	–	–	–	–	–	–	–	–	–	–	–	–	–	–	–	–	early apoptosis [1]: 32–33%; late apoptosis [1]: 50–51%; necrosis [1]: 6–7%; TUNEL green fluorescence (late apoptotic cells) [2]: increased green fluorescence
C=CCc1ccc(O)c(OC)c1 [EUG, 2-methoxy-4-(prop-2-en-1-yl)phenol, reference compound]	1000 (≈ 6090 µM)	500 (≈ 3040 µM)	1000 (≈ 6090 µM)	500 (≈ 3040 µM)	1000 (≈ 6090 µM)	500 (≈ 3040 µM)	1000 (≈ 6090 µM)	500 (≈ 3040 µM)	1000 (≈ 6090 µM)	500 (≈ 3040 µM)	1000 (≈ 6090 µM)	500 (≈ 3040 µM)	1000 (≈ 6090 µM)	500 (≈ 3040 µM)	1000 (≈ 6090 µM)	500 (≈ 3040 µM)	1000 (≈ 6090 µM)	500 (≈ 3040 µM)	500 (≈ 3040 µM)	500 (≈ 3040 µM)	MFC [12]: 1000 mg/L (≈ 6090 µM); MFC [13]: 1000 mg/L (≈ 6090 µM); MFC [14, 18]: 1000 mg/L (≈ 6090 µM); MIC [14, 18]: 500 mg/L (≈ 3040 µM)
Triton X-100 [reference compound]	–	–	–	–	–	–	–	–	–	–	–	–	–	–	–	–	–	–	–	–	lysis [15]: 100%
OC(Cn1cncn1)(Cn1cncn1)c1ccc(F)cc1F [FLC, fluconazole, reference compound]	–	8 (≈ 26.1 µM)	–	32 (≈ 104 µM)	–	32 (≈ 104 µM)	–	–	–	0.25 (≈ 0.816 µM)	–	0.25 (≈ 0.816 µM)	–	16 (≈ 52.2 µM)	–	0.25 (≈ 0.816 µM)	–	0.25 (≈ 0.816 µM)	64 (≈ 209 µM)	0.25 (≈ 0.816 µM)	MIC ([6]; Candida albicans, 4175, 24 h): 0.125 mg/L (≈ 0.408 µM); MIC ([14]; fluconazole resistant strains, range): 8 to 64 mg/L (≈ 26.1 to 209 µM); MIC ([14]; fluconazole susceptible strains, range): 0.125 to 0.25 mg/L (≈ 0.408 to 0.816 µM)
C=CCc1ccc(OS(=O)(=O)c2ccccc2)c(OC)c1 [ETC-2, 2-methoxy-4-(prop-2-en-1-yl)-phenylbenzenesulfonate]	256 (≈ 841 µM)	64 (≈ 210 µM)	512 (≈ 1680 µM)	256 (≈ 841 µM)	512 (≈ 1680 µM)	128 (≈ 421 µM)	64 (≈ 210 µM)	32 (≈ 105 µM)	256 (≈ 841 µM)	128 (≈ 421 µM)	256 (≈ 841 µM)	64 (≈ 210 µM)	256 (≈ 841 µM)	128 (≈ 421 µM)	512 (≈ 1680 µM)	256 (≈ 841 µM)	256 (≈ 841 µM)	128 (≈ 421 µM)	256 (≈ 841 µM)	32 (≈ 105 µM)	MFC [12]: 512 mg/L (≈ 1680 µM); MFC [13]: 64 mg/L (≈ 210 µM)
